Source: patent US8318980B2, “UV absorbing compounds” (Fujifilm Manufacturing Europe B.V., priority 2007, dated 2012)
“Also recorded” adds a separate entry of the source.

Columns and labels:
[1] = Solubility test in C12-C15 alkyl benzoate oil (Finsolv TN); format: physicochemical; parameters: key to Solubility in Finsolv TN, dissolved amount (m/m %) 1% / Solubility in Finsolv TN, dissolved amount (m/m %) 5% / Solubility in Finsolv TN, dissolved amount (m/m %) 20% / Solubility in Finsolv TN, dissolved amount (m/m %) 50% / Solubility in Finsolv TN, dissolved amount (m/m %) 80% / Solubility in Finsolv TN, dissolved amount (m/m %) 90%: +=well-soluble; −=not soluble; conditions: dissolved at 80° C. for 1 hour, cooled to room temperature, inspected after 24 hours; for Solubility in Finsolv TN, dissolved amount (m/m %) 1%: 1% m/m; for Solubility in Finsolv TN, dissolved amount (m/m %) 5%: 5% m/m; for Solubility in Finsolv TN, dissolved amount (m/m %) 20%: 20% m/m; for Solubility in Finsolv TN, dissolved amount (m/m %) 50%: 50% m/m; for Solubility in Finsolv TN, dissolved amount (m/m %) 80%: 80% m/m; for Solubility in Finsolv TN, dissolved amount (m/m %) 90%: 90% m/m
Description: The aminobutadiene compounds according to the present invention have an optimised solubility for cosmetic oils. […] In Table 3, the solubility of compounds 4, 12 and 13 is shown at various concentrations (+=well-soluble; -=not soluble). The compounds were dissolved at 80° C. while stirring for 1 hour and cooled down to room temperature. After 24 hours the solutions were inspected for any precipitates or crystals.

[2] = Heat stability test (UV-absorption left after storage at 50° C.); format: physicochemical; conditions: for Heat stability: UV-absorption left after 5 days: 5 days at 50° C. in the dark; for Heat stability: UV-absorption left after 5 days / Heat stability: UV-absorption left after 50 days / Heat stability: UV-absorption left after 100 days: 1.5% in C12-C15 alkyl benzoate oil (compound 12: 5% in water), 375 nm versus sample stored at room temperature; for Heat stability: UV-absorption left after 50 days: 50 days at 50° C. in the dark; for Heat stability: UV-absorption left after 100 days: 100 days at 50° C. in the dark; for heat stability, in words: in C12-C15 alkylbenzoate oils
Description: Hereto, 1.5% solutions were prepared of compounds 4-11 and 13 in C12-C15 alkyl benzoate oil. […] The solutions were stored in closed vessels at 50° C. in the dark. After 5, 50 and 100 days, the UV-absorption of a diluted sample was measured at 375 nm comparative to a corresponding sample stored at room temperature. The UV-absorption left after each time span is shown in Table 4 indicated by + and − signs. ++ means >95% left, +− implies between 50-95% left, − indicates <50% left.

human skin = assay: Skin penetration test in diffusion cell; format: in vitro ADME; conditions: for penetration into or through the skin (UV analysis of DMSO skin extracts), in words / penetration through the skin (UV-analysis of collected receptor fluids), in words: human skin, diffusion cell; for penetration through the skin (UV-analysis of collected receptor fluids), in words: 20 hrs
Description: The skin-penetration was evaluated based on the same method described on page 21 of WO2006/009451. FIG. 2 is a drawing of the skin penetration test equipment, wherein (1) indicates the position of the test sample (donor compound), (2) an ⅛″ OD× 1/32″ wall tubing, (3) the receptor input, (4) the receptor compartment and (5) the compound and receptor output that is subjected to analysis.
A compound 3 donor solution was prepared by dissolving 30 mg of compound 3 in 4 ml EtOH and 7 ml phosphate buffer (PBS) at pH 7.4. Compound 4, 6, 7, 8 and 9 donor solutions were prepared by dispersing 80 mg of these compounds in olive oil.
For each compound 4 pieces of human skin (Ø ca 3 cm, mostly epidermis) were applied on a dialysis membrane and mounted into the diffusion cell shown in the FIG. 2. The figure is a schematic drawing of the diffusion cell, wherein is indicated 1: donor compound, 2: receptor compartment, 3: receptor input, 4: compound and receptor output for analysis, 5: ⅛″ OD× 1/32″ wall tubing. The cells were mounted on a temperature controlling and stirring device. The temperature was kept at 37°. The receptor fluid was a PBS buffer. The receptor compartment was stirred magnetically. 400 μl of the donor solution was applied. The receptor fluid flowing at a speed of 1 ml/hr was collected into glass tubes (1 tube/2 hrs). After 20 hrs the penetration experiment was terminated.
Furthermore the skin parts were extracted with DMSO to dissolve any UV-absorber in the epidermis. The extracts were analysed by UV.

Solubility in Finsolv TN, dissolved amount (m/m %) 1% [1]	Solubility in Finsolv TN, dissolved amount (m/m %) 5% [1]	Solubility in Finsolv TN, dissolved amount (m/m %) 20% [1]	Solubility in Finsolv TN, dissolved amount (m/m %) 50% [1]	Solubility in Finsolv TN, dissolved amount (m/m %) 80% [1]	Solubility in Finsolv TN, dissolved amount (m/m %) 90% [1]	Heat stability: UV-absorption left after 5 days [2]	Heat stability: UV-absorption left after 50 days [2]	Heat stability: UV-absorption left after 100 days [2]	SMILES	heat stability, in words [2]	penetration into or through the skin (UV analysis of DMSO skin extracts), in words (human skin)	penetration through the skin (UV-analysis of collected receptor fluids), in words (human skin)	Presence in receptor fluid after 6 h (human skin; human skin (mostly epidermis), 37°, PBS receptor fluid, compound 3 donor in EtOH/PBS pH 7.4, others dispersed in olive oil, UV-analysis)	Presence in skin extract (human skin; skin parts extracted with DMSO after the penetration experiment, UV analysis)
+	+	+	−	−	−	++ (++ means >95% left)	++ (++ means >95% left)	++ (++ means >95% left)	CCCCCCCCOC(=O)C(=CC=CN(CCCC)CCN(C=CC=C(C(=O)OCCCCCCCC)S(=O)(=O)c1ccccc1)CCN(C=CC=C(C(=O)OCCCCCCCC)S(=O)(=O)c1ccccc1)CCCC)S(=O)(=O)c1ccccc1 [Compound 13]	very heat stable; also recorded: good heat stability				
						++ (++ means >95% left)	+− (+− implies between 50-95% left)	+− (+− implies between 50-95% left)	CCCCCCCCOC(=O)/C(=C/C=C/NCCCCCCN(/C=C\C=C(/C(=O)OCCCCCCCC)S(=O)(=O)c1ccccc1)CCCCCCN/C=C/C=C(\C(=O)OCCCCCCCC)S(=O)(=O)c1ccccc1)S(=O)(=O)c1ccccc1 [Compound 5, reference compound]					
+	+	+	+	+	+	++ (++ means >95% left)	++ (++ means >95% left)	++ (++ means >95% left)	CCCCCCCCCCCCCCCCCCOC(=O)C(=CC=CN(CCCCCCN(C=CC=C(C(=O)OCCCCCCCCCCCCCCCCCC)S(=O)(=O)c1ccccc1)Cc1ccccc1)CCCCCCN(C=CC=C(C(=O)OCCCCCCCCCCCCCCCCCC)S(=O)(=O)c1ccccc1)Cc1ccccc1)S(=O)(=O)c1ccccc1 [Compound 19]					
+	−	−	−	−	−	++ (++ means >95% left)	++ (++ means >95% left)	++ (++ means >95% left)	CCCCC(CC)COC(=O)C(=CC=CN(CCCCCCN(C=CC=C(C(=O)OCC(CC)CCCC)S(=O)(=O)c1ccccc1)Cc1ccccc1)CCCCCCN(C=CC=C(C(=O)OCC(CC)CCCC)S(=O)(=O)c1ccccc1)Cc1ccccc1)S(=O)(=O)c1ccccc1 (centres unmarked) [Compound 18]					
									CCCCCCCCOC(=O)C(=CC=CN(C(C)=O)c1ccccc1)S(=O)(=O)c1ccccc1 [aminobutadiene 3, reference compound]		observed inside the skin sample	penetration	+ (a ‘+’ means that more than 50% of the substance penetrates the skin)	+ (a ‘+’ means that more than 50% of the substance penetrates the skin)
−	−	−	−	−	−	++ (++ means >95% left)	++ (++ means >95% left)	++ (++ means >95% left)	CC(C)OC(=O)C(=CC=CN(CCCCCCN(C=CC=C(C(=O)OC(C)C)S(=O)(=O)c1ccccc1)Cc1ccccc1)CCCCCCN(C=CC=C(C(=O)OC(C)C)S(=O)(=O)c1ccccc1)Cc1ccccc1)S(=O)(=O)c1ccccc1 [Compound 17]					
						++ (++ means >95% left)	+− (+− implies between 50-95% left)	− (− indicates <50% left)	CCCCCCCCOC(=O)C(=CC=CNCCN(CCNC=CC=C(C(=O)OCCCCCCCC)S(=O)(=O)c1ccccc1)CCNC=CC=C(C(=O)OCCCCCCCC)S(=O)(=O)c1ccccc1)S(=O)(=O)c1ccccc1 [Compound 10, reference compound]					
						++ (++ means >95% left)	+− (+− implies between 50-95% left)	− (− indicates <50% left)	CCCCCCCCOC(=O)C(=CC=CNCCCN(CCCCN(CCCNC=CC=C(C(=O)OCCCCCCCC)S(=O)(=O)c1ccccc1)CCCNC=CC=C(C(=O)OCCCCCCCC)S(=O)(=O)c1ccccc1)CCCNC=CC=C(C(=O)OCCCCCCCC)S(=O)(=O)c1ccccc1)S(=O)(=O)c1ccccc1 [Compound 11, reference compound]					

SMILES	Solubility in Finsolv TN, dissolved amount (m/m %) 1% [1]	Solubility in Finsolv TN, dissolved amount (m/m %) 5% [1]	Solubility in Finsolv TN, dissolved amount (m/m %) 20% [1]	Solubility in Finsolv TN, dissolved amount (m/m %) 50% [1]	Solubility in Finsolv TN, dissolved amount (m/m %) 80% [1]	Solubility in Finsolv TN, dissolved amount (m/m %) 90% [1]	Heat stability: UV-absorption left after 5 days [2]	Heat stability: UV-absorption left after 50 days [2]	Heat stability: UV-absorption left after 100 days [2]	heat stability, in words [2]	penetration into or through the skin (UV analysis of DMSO skin extracts), in words (human skin)	penetration through the skin (UV-analysis of collected receptor fluids), in words (human skin)	Presence in receptor fluid after 6 h (human skin; human skin (mostly epidermis), 37°, PBS receptor fluid, compound 3 donor in EtOH/PBS pH 7.4, others dispersed in olive oil, UV-analysis)	Presence in skin extract (human skin; skin parts extracted with DMSO after the penetration experiment, UV analysis)
CCCCCCCCOC(=O)C(=CC=CN(CCN(C=CC=C(C(=O)OCCCCCCCC)S(=O)(=O)c1ccccc1)Cc1ccccc1)CCN(C=CC=C(C(=O)OCCCCCCCC)S(=O)(=O)c1ccccc1)Cc1ccccc1)S(=O)(=O)c1ccccc1 [Compound 9]							++ (++ means >95% left)	++ (++ means >95% left)	++ (++ means >95% left)	very heat stable; also recorded: good heat stability	do not penetrate into or through the skin	no penetration		
CCCCCCCCOC(=O)C(=CC=CN(CCCN(CCCCN(CCCN(C=CC=C(C(=O)OCCCCCCCC)S(=O)(=O)c1ccccc1)Cc1ccccc1)CCCN(C=CC=C(C(=O)OCCCCCCCC)S(=O)(=O)c1ccccc1)Cc1ccccc1)CCCN(C=CC=C(C(=O)OCCCCCCCC)S(=O)(=O)c1ccccc1)Cc1ccccc1)Cc1ccccc1)S(=O)(=O)c1ccccc1 [Compound 8]							++ (++ means >95% left)	++ (++ means >95% left)	++ (++ means >95% left)	very heat stable	do not penetrate into or through the skin	no penetration		
CCCCCCCCOC(=O)C(=CC=CN(CCN(CCN(C=CC=C(C(=O)OCCCCCCCC)S(=O)(=O)c1ccccc1)Cc1ccccc1)CCN(C=CC=C(C(=O)OCCCCCCCC)S(=O)(=O)c1ccccc1)Cc1ccccc1)Cc1ccccc1)S(=O)(=O)c1ccccc1 [Compound 7]							++ (++ means >95% left)	++ (++ means >95% left)	++ (++ means >95% left)	very heat stable	do not penetrate into or through the skin	no penetration		
